The source of these data is patent US20120076781A1, “METHODS OF TREATING CANCERS WITH HER3 ANTISENSE OLIGONUCLEOTIDES” (ENZON PHARMACEUTICALS, INC., priority 2009, published 2012).

One data set relates to HER3 and P-HER3. The data set can be described thus: Feedback upregulation of HER3 and P-HER3 by lapatinib in BT474, SKBR3 and MDA453 cells. To be noted: lapatinib 1 μM, trastuzumab 10 μg/ml, SEQ ID NO: 180 5 μM, 0-48 hours. The class given is cell-based, human.
The subject of data set [1] is HER3 mRNA. The data set can be described thus: HER3 mRNA knockdown in N87 (gastric carcinoma) xenograft tumor. To be noted: 25 mg/kg, q3d x 5, i.v. The class given is in vivo, human. The method, then:
(§1) To evaluate the knockdown efficacy of the HER3 oligomeric compounds in vivo, the female nude mice bearing 15PC3 xenografts developed by subcutaneous injection of 5×10^6 cells/mouse into the right axillary flank, were injected intravenously with the oligomers at various doses and injection schedules (i.e. single dose, qd, q3d, q4d). Scrambled oligomer SEQ ID NO: 236 served as a negative control. 24 hours after the last injection, the mice were euthanized and liver and tumor tissues were collected in RNAlater solution (Ambion). Total RNA was purified from the tissues and the levels of HER3 mRNA were determined by quantitative reverse transcription-real time PCR (qRT-PCR) using the QuantiTect Probe RT-PCR kit (Cat#: 204443; Qiagen). GAPDH mRNA served as an internal control.
(§2) The knockdown efficacy of oligomers was evaluated in vivo in nude mice bearing xenograft tumors derived from 15PC3 cells or A549 cells (NSCLC) or N87 cells (gastric carcinoma) using a similar protocol to the one described above in Example 11. […] Tissues were harvested 3 or 4 days after the last injection.
(§3) Data in Tables 6 and 7 are presented as % HER3 mRNA or HIF-1 alpha mRNA relative to saline treated controls in liver and tumor samples after i.v. dosing of animals with the indicated oligomers.
For orientation: Xenograft models place foreign cells or tissue in a host animal.

The subject of data set [2] is HCC827 gefitinib-sensitive cells. Description: Colony growth of gefitinib-sensitive HCC827 cells (MTT staining, colony count). The class given is cell-based, human. To be noted: 1 μM, 10 days. On the procedure: (§4) HCC827 lung adenocarcinoma cells (ATCC CRL-2868) were maintained at 37° C. in a humidified atmosphere of 5% CO2 and 95% air in RPMI medium supplemented with 10% fetal bovine serum. To generate gefitinib resistance, cells were treated with increasing amounts of gefitinib (up to 500 nM) for a period of 3 months.
(§5) HCC287 and HCC287R cells were plated in duplicate at 200 cells/well of a 6-well plate and incubated for 24 hours. Cells were treated with 1 μM of ON180 (SEQ ID NO: 180) and incubated for 10 days, after which cells were stained with MTT and the number of colonies counted. Percent of control was calculated for both HCC827 and […] cells.

The subject of data set [3] is HER3 mRNA. The data set can be described thus: HER3 mRNA knockdown in 15PC3 xenograft tumor, different dosing cycle. The settings on record: every third day. The class given is in vivo, human. On the procedure: as §1
(§6) The knockdown efficacy of oligomers was evaluated in vivo in nude mice bearing xenograft tumors derived from 15PC3 cells or A549 cells (NSCLC) or N87 cells (gastric carcinoma) using a similar protocol to the one described above in Example 11. Oligomers were administered by injection every third day in 2-4 doses. Tissues were harvested 3 or 4 days after the last injection.
as §3

For data set [4], the system named is gefitinib-resistant HCC827 cells. Description: Colony growth of gefitinib-resistant HCC827R cells (MTT staining, colony count). Type of data set: cell-based, human. The settings on record: 1 μM, 10 days. On the procedure: as §4, §5
Data set [5] relates to HER3 mRNA. The data set can be described thus: HER3 mRNA knockdown in A549 (NSCLC) xenograft tumor. The class given is in vivo, human. The settings on record: 35 mg/kg, q4d x 3, i.v. On the procedure:
as §1, §6, §3

Data set [6] concerns HCC827 human cell line xenograft. Description: Tumor growth in mouse xenograft model of human non-small cell lung cancer. The class given is in vivo. The settings on record: at approximately 31 days.
In data set [7] the test system is HER3 mRNA. Description: HER3 mRNA knockdown in liver of xenograft-bearing nude mice, different dosing cycle. To be noted: for Liver HER3 mRNA relative to saline treated controls: 15PC3 xenograft mice, every third day. Type of data set: in vivo, mouse. The method, then:
as §1, §2, §3

Another data set concerns human HER3 mRNA. Description: HER3 mRNA knockdown in 15PC3 xenograft tumor in nude mice, qd x 5 (qRT-PCR). The class given is in vivo. The settings on record: i.v., relative to saline controls. On the procedure:
as §1
(§7) 200 ng of total RNA was used in the PCR reaction. The data analyses were performed by using the ABI-7500 PCR Fast System included software.
(§8) Data in Table 5 are presented as % HER3 mRNA levels relative to saline treated controls in liver and tumor samples after i.v. dosing of animals on 5 consecutive days with oligonucleotides in the doses indicated.
Background: In qPCR the cycle at which signal appears reflects the starting amount.

The next data set concerns HIF-1 alpha mRNA. Description: HIF-1 alpha mRNA in 15PC3 xenograft tumor, different dosing cycle. The class given is in vivo, human. The settings on record: 60.2 x 2 or 3 mg/kg i.v., every third day. The method, then: as §1, §6, §3
Another data set has as its system Mouse HER3 mRNA. Description: HER3 mRNA knockdown in liver of nude mice bearing 15PC3 xenografts, qd x 5 (qRT-PCR). The class given is in vivo. The settings on record: i.v. The method, then: as §1, §7, §8

In the oligonucleotide strings, read from the 5' end, every base follows the letter of its sugar. An asterisk marks phosphorothioate; unmarked linkages are phosphodiester. Other units and linkages are bracketed, terminal groups are in braces. A string of capitals states the bases alone. l = locked nucleic acid (LNA); [5mC] = 5-methylcytosine; d = 2'-deoxy (DNA)

With “TSASGScScStSgStScSaScStStSCSTSC (antisense lT*lA*lG*dC*dC*dT*dG*dT*dC*dA*dC*dT*dT*l[5mC]*lT*l[5mC]) [SEQ ID NO: 180, β-D-oxy-LNA/DNA phosphorothioate gapmer antisense oligonucleotide targeting HER3]”, in the data set with HER3 and P-HER3, the “prevention of feedback upregulation of HER3 and P-HER3 expression by lapatinib” value is “able to prevent feedback upregulation of HER3 and P-HER3 expression by lapatinib”. The “HER3 Tumor” value in the data set with HER3 mRNA [1] was determined as 46.6 ± 13.4 % saline control; in the data set with HER3 mRNA [5], 54.6 ± 15.2 % saline control. Further, the “reduction in cell growth as compared to the untreated control” value in [2] is given as “about 50%”; in data set [4] it was “greater than 80%”. Besides, the “Tumor HER3 mRNA relative to saline treated controls” value with HER3 mRNA [3] (60.2 x 4 mg/kg i.v.) worked out at 54.2 ± 9.1%; with HER3 mRNA [3] (60.2 x 2 or 3 mg/kg i.v.), 47.1 ± 2.2%. The “Mean tumor volume reduced vs. saline control” value in [6] (30 mg/kg i.v.) is reported as 65.5%; in [6] (45 mg/kg i.v.) it was 81.3%. In addition, the “Liver HER3 mRNA relative to saline treated controls” value in the data set on HER3 mRNA [7] (60.2 x 4 mg/kg i.v.) is 31.8 ± 5%; in the data set with HER3 mRNA [7] (60.2 x 2 or 3 mg/kg i.v.) it was 6.9 ± 3.6%. Besides, the “HER3 Liver” value in the data set with HER3 mRNA [7] (A549 xenograft mice, 35 mg/kg, q4d x 3, i.v.) came out at 31.8 ± 5.7 % saline control; in the data set with HER3 mRNA [7] (N87 xenograft mice, 25 mg/kg, q3d x 5, i.v.) it was 24.7 ± 3.1 % saline control. Further, the “HER3 mRNA Tumor” value stood at 83.1 ± 19.5% with human HER3 mRNA (19.8 mg/kg); 65 ± 20.2% in the data set on human HER3 mRNA (25.6 mg/kg); 37 ± 5.8% in the data set on human HER3 mRNA (31.3 mg/kg); 32.3 ± 9.7% in the data set on human HER3 mRNA (66 mg/kg); 25.8 ± 4.1% in the data set with human HER3 mRNA (85.3 mg/kg). In addition, the “Tumor Hif1A mRNA relative to saline treated controls” value in the data set on HIF-1 alpha mRNA is 101 ± 7.3%. The “HER3 mRNA Liver” value in the data set on Mouse HER3 mRNA (19.8 mg/kg) is reported as 1.7 ± 0.6 % of Sal ctrl; with Mouse HER3 mRNA (25.6 mg/kg) it was 3 ± 0.3 % of Sal ctrl; in the data set with Mouse HER3 mRNA (31.3 mg/kg), 1.6 ± 0.3 % of Sal ctrl; with Mouse HER3 mRNA (66 mg/kg), 6 ± 5.3 % of Sal ctrl; in the data set on Mouse HER3 mRNA (85.3 mg/kg), 1 ± 0.3 % of Sal ctrl.
